Laboratory results: ChEMBL document CHEMBL5104173, “Combining monoamine oxidase B and semicarbazide-sensitive amine oxidase enzyme inhibition to address inflammatory disease” (Bioorg Med Chem Lett, 2022)
The source made the active and inactive calls. The rule behind the calls is not given here.

Experiments:
[1] = biological target: recombinant human DAO (diamine oxidase) (Homo sapiens, UniProt P19801); test: Inhibition of human recombinant DAO
[2] = biological target: T1, Amine oxidase [flavin-containing] A (Homo sapiens, UniProt P21397); test: Inhibition of human recombinant MAO-A
T1 sequence (P21397 whole entry): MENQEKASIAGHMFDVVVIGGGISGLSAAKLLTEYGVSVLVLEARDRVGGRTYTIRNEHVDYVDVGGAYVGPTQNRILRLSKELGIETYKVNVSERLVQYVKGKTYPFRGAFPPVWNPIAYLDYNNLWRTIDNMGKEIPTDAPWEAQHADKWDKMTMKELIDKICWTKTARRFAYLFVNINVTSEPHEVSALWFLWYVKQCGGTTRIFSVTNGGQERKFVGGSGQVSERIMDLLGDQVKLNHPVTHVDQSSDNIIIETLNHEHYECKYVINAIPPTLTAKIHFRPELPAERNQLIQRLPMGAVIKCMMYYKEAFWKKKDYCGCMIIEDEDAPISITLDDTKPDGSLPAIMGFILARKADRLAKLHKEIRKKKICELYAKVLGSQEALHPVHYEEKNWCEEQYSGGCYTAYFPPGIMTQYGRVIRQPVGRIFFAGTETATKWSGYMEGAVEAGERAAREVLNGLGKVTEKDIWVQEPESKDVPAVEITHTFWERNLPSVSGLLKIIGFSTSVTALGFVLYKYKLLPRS

[3] = biological target: T2, Amine oxidase [flavin-containing] B (Homo sapiens, UniProt P27338); test: Inhibition of human recombinant MAO-B
T2 sequence (P27338 whole entry): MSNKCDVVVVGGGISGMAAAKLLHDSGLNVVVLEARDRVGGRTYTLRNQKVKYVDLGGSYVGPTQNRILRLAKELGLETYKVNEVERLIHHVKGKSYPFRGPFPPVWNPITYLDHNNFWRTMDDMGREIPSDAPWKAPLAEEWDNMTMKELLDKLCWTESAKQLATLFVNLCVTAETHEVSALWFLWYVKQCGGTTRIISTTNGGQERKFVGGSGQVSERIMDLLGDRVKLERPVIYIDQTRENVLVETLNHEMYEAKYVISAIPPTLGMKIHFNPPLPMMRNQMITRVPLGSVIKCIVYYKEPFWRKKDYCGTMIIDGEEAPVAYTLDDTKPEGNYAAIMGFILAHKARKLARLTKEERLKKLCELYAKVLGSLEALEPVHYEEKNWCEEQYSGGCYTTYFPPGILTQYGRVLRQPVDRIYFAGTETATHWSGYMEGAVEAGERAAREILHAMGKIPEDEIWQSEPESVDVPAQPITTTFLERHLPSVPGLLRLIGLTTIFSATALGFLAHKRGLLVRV

[4] = Permeability in MDCK-MDR1 cells; format: ADME, cell-based, Canis lupus familiaris; conditions: dog
[5] = biological target: T3, Lysyl oxidase homolog 2 (Homo sapiens, UniProt Q9Y4K0); test: Inhibition of recombinant human LOXL-2
T3 sequence (Q9Y4K0 whole entry): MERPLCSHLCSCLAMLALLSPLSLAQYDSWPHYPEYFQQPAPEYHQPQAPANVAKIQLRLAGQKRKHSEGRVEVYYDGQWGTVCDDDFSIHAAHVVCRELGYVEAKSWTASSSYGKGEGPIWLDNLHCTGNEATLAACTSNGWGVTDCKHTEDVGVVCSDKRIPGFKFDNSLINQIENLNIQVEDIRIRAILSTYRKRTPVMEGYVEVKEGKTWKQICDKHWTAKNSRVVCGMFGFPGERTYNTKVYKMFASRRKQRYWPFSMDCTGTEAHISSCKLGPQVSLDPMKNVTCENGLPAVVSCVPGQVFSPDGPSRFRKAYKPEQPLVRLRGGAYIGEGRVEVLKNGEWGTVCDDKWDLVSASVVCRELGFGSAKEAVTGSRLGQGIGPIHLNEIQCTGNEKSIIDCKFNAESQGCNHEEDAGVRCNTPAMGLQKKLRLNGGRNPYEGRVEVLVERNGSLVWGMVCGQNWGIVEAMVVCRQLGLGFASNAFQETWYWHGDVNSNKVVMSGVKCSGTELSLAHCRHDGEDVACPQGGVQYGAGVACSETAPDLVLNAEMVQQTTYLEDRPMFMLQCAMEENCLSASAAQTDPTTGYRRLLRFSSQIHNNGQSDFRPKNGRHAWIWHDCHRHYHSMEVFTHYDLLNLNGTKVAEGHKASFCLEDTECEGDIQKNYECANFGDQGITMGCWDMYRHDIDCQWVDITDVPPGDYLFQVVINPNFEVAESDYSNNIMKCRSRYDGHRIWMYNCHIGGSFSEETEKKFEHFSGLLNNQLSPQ

[6] = AUC (0 to infinity) in Wistar rat at 3 mg/kg, po; format: ADME, organism-based; design: time infinity, dose 3 mg/kg, route po; conditions: in vivo
[7] = Stability in human hepatocytes assessed as parent compound remaining measured after 1 hr; format: ADME, cell-based, Hepatocyte; conditions: read-out: Stability
[8] = test system: Mus musculus; test: Antineuroinflammatory activity in PLP-induced autoimmune encephalomyelitis mouse model assessed as reduction in AUC of clinical score at 0.6 to 6 mg/kg/day, po administered once daily via oral gavage starting from day 13 post PLP sensibilization and measured on day 30; format: functional, organism-based; conditions: dose 0.6-6 mg/kg/day, time 17.0 day
[9] = test system: Rattus norvegicus; test: In vivo inhibition of MOA-A in Wistar rat brain at 3 mg/kg, po administered as single dose and measured upto 48 hrs; format: functional, organism-based
[10] = biological target: T4, Cytochrome P450 1A2 (Homo sapiens, UniProt P05177); test: Inhibition of CYP1A2 (unknown origin); format: ADME
T4 sequence (P05177 whole entry): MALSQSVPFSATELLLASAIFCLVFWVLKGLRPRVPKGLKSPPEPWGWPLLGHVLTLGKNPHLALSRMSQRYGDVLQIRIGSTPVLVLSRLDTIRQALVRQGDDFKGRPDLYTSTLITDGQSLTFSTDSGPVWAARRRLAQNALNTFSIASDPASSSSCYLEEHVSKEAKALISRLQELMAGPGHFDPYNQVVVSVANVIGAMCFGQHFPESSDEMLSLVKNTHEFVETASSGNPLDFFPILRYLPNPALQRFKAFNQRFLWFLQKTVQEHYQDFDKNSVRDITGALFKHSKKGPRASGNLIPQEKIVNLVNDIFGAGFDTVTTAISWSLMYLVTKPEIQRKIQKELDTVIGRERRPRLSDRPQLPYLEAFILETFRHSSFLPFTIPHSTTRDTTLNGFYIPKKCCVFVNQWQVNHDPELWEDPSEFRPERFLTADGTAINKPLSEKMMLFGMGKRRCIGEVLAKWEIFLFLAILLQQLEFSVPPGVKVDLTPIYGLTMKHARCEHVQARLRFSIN

[11] = Cmax in Wistar rat at 3 mg/kg, po; format: ADME, organism-based; design: dose 3 mg/kg, route po; conditions: in vivo
[12] = Tmax in Wistar rat at 3 mg/kg, po; format: ADME, organism-based; conditions: in vivo
[13] = Plasma protein binding in dog; format: ADME, cell-free, Canis lupus familiaris; conditions: read-out: PPB (converted)
[14] = Stability in rat microsomes measured after 1 hr; format: ADME, Microsome; conditions: read-out: Stability
[15] = biological target: Cytochrome P450 2D6 (Homo sapiens, UniProt P10635); test: Inhibition of CYP2D6 (unknown origin); format: ADME
Chain of Cytochrome P450 2D6 (P10635 whole entry): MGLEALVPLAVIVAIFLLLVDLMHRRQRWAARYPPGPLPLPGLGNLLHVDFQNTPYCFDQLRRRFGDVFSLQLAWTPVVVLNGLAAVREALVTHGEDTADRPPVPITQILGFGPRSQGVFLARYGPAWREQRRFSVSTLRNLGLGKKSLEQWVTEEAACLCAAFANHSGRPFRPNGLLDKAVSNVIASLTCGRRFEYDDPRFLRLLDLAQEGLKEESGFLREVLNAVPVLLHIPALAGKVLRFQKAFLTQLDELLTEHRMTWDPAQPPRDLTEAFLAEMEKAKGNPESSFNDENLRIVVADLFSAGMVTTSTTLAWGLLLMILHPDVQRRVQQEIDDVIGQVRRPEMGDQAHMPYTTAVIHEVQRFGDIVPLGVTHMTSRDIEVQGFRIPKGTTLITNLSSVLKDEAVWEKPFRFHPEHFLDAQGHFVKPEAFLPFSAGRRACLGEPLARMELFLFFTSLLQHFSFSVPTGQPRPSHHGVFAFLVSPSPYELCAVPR

[16] = biological target: Cytochrome P450 2C9 (Homo sapiens, UniProt P11712); test: Inhibition of CYP2C9 (unknown origin); format: ADME
Chain of Cytochrome P450 2C9 (P11712 whole entry): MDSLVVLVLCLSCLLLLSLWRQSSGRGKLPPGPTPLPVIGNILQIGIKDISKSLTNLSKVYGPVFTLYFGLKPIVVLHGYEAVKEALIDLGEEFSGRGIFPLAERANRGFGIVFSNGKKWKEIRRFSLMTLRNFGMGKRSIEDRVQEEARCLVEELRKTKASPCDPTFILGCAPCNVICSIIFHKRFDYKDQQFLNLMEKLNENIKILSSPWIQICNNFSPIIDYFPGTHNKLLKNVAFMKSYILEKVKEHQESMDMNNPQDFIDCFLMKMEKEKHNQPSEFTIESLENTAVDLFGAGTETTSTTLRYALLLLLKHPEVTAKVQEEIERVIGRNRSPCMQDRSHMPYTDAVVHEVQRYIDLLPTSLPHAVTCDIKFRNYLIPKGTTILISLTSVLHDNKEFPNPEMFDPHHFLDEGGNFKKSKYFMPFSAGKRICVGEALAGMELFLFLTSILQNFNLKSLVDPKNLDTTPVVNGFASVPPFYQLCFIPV

[17] = biological target: T5, Protein-lysine 6-oxidase (Bos taurus, UniProt P33072); test: Inhibition of bovine aorta LOX; format: tissue-based
T5 sequence (P33072 whole entry): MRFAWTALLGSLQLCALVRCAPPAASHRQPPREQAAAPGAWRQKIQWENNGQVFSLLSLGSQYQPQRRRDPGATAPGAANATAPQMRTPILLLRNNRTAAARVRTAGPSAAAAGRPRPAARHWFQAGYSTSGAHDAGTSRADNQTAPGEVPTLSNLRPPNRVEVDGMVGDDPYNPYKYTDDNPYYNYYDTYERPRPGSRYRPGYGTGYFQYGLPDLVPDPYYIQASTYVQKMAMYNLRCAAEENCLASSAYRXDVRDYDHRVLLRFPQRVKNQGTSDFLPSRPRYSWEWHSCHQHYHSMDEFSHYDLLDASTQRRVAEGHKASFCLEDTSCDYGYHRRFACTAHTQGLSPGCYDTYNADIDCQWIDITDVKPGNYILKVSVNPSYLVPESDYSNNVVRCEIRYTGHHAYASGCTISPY

[18] = test system: Rattus norvegicus; test: In vivo inhibition of SSAO in Wistar rat adipose tissue at 0.6 mg/kg, po administered as single dose and measured upto 48 hrs; format: functional, organism-based
[19] = test system: Mus musculus; test: Antiinflammatory activity against mouse air pouch model of carrageenan-induced oedema assessed as reduction in total inflammatory cell volume into air pouch at 0.6 to 6 mg/kg, po administered as single dose for 1 hr followed byb carrageenan administration; format: functional, organism-based; conditions: dose 0.6-6 mg/kg
[20] = biological target: Cytochrome P450 3A4 (Homo sapiens, UniProt P08684); test: Inhibition of CYP3A4 (unknown origin); format: ADME
Chain of Cytochrome P450 3A4 (P08684 whole entry): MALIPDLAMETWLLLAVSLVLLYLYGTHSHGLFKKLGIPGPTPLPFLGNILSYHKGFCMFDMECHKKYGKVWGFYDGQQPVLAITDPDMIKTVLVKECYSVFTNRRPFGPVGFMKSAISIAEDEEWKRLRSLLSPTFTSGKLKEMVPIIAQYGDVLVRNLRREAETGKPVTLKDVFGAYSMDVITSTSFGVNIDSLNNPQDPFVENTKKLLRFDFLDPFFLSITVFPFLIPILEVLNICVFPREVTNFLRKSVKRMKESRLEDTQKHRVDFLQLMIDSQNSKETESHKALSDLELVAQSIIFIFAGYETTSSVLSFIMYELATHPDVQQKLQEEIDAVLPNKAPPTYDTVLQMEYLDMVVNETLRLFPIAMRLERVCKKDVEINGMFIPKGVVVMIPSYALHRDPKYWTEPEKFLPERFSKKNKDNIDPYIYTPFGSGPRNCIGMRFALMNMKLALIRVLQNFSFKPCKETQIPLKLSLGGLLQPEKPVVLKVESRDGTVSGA

[21] = Plasma protein binding in rat; format: ADME, cell-free; conditions: read-out: PPB (converted)
[22] = Stability in dog microsomes measured after 1 hr; format: ADME, Canis lupus familiaris, Microsome; conditions: read-out: Stability
[23] = test system: Mus musculus; test: Antiinflammatory activity against mouse air pouch model of carrageenan-induced oedema assessed as reduction in neutrophil number in infiltrate at 0.6 mg/kg, po administered as single dose for 1 hr followed byb carrageenan administration; format: functional, organism-based
[24] = Plasma protein binding in human; format: ADME, cell-free; conditions: read-out: PPB (converted)
[25] = biological target: Lysine-specific histone demethylase 1A (Homo sapiens, UniProt O60341); test: Inhibition of LSD1 (unknown origin)
[26] = biological target: T6, Amine oxidase [flavin-containing] B (Mus musculus, UniProt Q8BW75); test: Inhibition of mouse muscle MAO-B; format: tissue-based, Muscle tissue
T6 sequence (Q8BW75 whole entry): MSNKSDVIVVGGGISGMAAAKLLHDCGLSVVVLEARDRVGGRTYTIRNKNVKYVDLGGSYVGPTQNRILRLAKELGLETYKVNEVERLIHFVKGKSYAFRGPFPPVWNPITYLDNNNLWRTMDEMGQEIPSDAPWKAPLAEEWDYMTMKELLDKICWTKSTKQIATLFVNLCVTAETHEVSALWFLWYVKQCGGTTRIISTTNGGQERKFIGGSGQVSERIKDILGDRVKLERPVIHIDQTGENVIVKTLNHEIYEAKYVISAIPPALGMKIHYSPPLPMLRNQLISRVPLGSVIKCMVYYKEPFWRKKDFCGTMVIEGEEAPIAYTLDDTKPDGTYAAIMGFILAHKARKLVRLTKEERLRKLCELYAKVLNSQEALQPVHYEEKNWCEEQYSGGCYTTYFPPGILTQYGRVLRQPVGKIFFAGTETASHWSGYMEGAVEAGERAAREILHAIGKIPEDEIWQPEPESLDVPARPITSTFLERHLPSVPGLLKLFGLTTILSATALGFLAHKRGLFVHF

[27] = biological target: Cytochrome P450 2C19 (Homo sapiens, UniProt P33261); test: Inhibition of CYP2C19 (unknown origin)
Chain of Cytochrome P450 2C19 (P33261 whole entry): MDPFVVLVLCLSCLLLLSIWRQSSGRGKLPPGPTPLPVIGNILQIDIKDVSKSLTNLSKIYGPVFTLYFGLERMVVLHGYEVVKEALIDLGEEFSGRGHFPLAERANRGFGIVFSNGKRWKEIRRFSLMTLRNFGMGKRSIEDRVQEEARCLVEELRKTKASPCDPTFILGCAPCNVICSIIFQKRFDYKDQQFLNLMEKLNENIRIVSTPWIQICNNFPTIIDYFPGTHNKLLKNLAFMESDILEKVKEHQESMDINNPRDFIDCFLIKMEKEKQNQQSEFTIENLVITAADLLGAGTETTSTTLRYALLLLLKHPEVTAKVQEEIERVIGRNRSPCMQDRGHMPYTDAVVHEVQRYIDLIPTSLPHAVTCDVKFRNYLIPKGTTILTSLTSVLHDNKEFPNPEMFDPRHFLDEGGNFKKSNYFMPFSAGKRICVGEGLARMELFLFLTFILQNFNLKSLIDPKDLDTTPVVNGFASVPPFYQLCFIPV

[28] = Stability in human microsomes measured after 1 hr; format: ADME, Microsome; conditions: read-out: Stability
[29] = test system: Rattus norvegicus; test: In vivo inhibition of MOA-B in Wistar rat brain at 0.6 mg/kg, po administered as single dose and measured upto 48 hrs; format: functional, organism-based
[30] = Inhibition of sodium channel (unknown origin) at 10 uM; format: toxicity; conditions: human
[31] = Inhibition of potassium channel (unknown origin) at 10 uM; format: toxicity; conditions: human
[32] = Inhibition of calcium channel (unknown origin) at 10 uM; format: toxicity; conditions: human

## NC/C(=C/F)[C@H]1Cc2ccccc2O1
[1]
  IC50: > 30 µM
[2]
  IC50: 6.8 µM

## NC/C(=C\F)COc1ccccc1
[1]
  IC50: > 30 µM
[3]
  IC50: 0.013 µM
[2]
  IC50: 4 µM

## Cl.NC/C(=C\F)[C@@H]1Cc2ccccc2O1
[1]
  IC50: > 30 µM
[4]
  permeability: Permeable
[2]
  IC50: 0.75 µM

## NC/C(=C/F)CCc1ccc(F)cc1 [MOFEGILINE]
[1]
  IC50: > 30 µM
[3]
  IC50: 0.002 µM
[2]
  IC50: 0.75 µM

## Cc1ccccc1OC/C(=C/F)CN
[1]
  IC50: > 30 µM
[3]
  IC50: 0.003 µM
[2]
  IC50: 0.16 µM

## NCC(=CF)COc1ccccc1 (mixture of isomers)
[1]
  IC50: 1.6 µM
[3]
  IC50: 0.009 µM
[2]
  IC50: 2.5 µM

## Cl.NC/C(=C\F)[C@H]1Cc2ccccc2O1
[5]
  IC50: > 30 µM
[6]
  AUC(0-inf): 265 ng·h/mL
[7]
  remaining at 1 h: > 95%
[8]
  Activity: Active
[9]
  inhibition: Active
[10]
  IC50: > 10 µM
[11]
  Cmax: 199 ng/mL
[12]
  Tmax: 20 min
[13]
  fraction unbound: 0.42
[14]
  remaining at 1 h: 67%
[15]
  IC50: > 10 µM
[16]
  IC50: > 10 µM
[17]
  IC50: > 30 µM
[18]
  inhibition: Active
[19]
  Activity: Active
[1]
  IC50: > 30 µM
[20]
  IC50: > 10 µM
[21]
  fraction unbound: 0.51
[22]
  remaining at 1 h: 92%
[23]
  Activity: Active
[24]
  fraction unbound: 0.24
[25]
  IC50: > 30 µM
[26]
  IC50: 0.0004 µM
[27]
  IC50: > 10 µM
[28]
  remaining at 1 h: 84%
[29]
  inhibition: Active
[2]
  IC50: 2.4 µM

## Cl.NCC(=CF)C1Cc2ccccc2O1 (mixture of isomers)
[30]
  inhibition (INH): Active
[1]
  IC50: > 30 µM
[31]
  inhibition (INH): Active
[32]
  inhibition (INH): Active
[2]
  IC50: 0.46 µM

## NCC(=CF)COc1ccc(F)cc1 (mixture of isomers)
[1]
  IC50: 0.78 µM
[3]
  IC50: 0.004 µM
[2]
  IC50: 14 µM

## NC/C(=C/F)[C@@H]1Cc2ccccc2O1
[2]
  IC50: 0.1 µM
